In patent US20080268076A1, “Composition for Inhibiting Acyl-Coa:Cholesterol Acyltransferase” (priority 2005, published 2008):

Test system: acyl-CoA:cholesterol acyltransferase (ACAT)
Assay: Assay for ACAT activity with [1-14C]oleoyl-CoA and rat liver microsomal enzyme
Conditions: ACAT inhibition, compared with the positive control obovatol
Experimental: The livers were removed from Male Sprague-Dawley rats (250-300 g), washed with microsome buffer A (0.25 M sucrose, 1 mM EDTA, 0.01 M Tris-HCl, pH 7.4), finely fractioned with scissors, and homogenized using a Teflon-glass homogenizer.
A reaction solution was prepared by mixing 10.0 μl of the sample, 4.0 μl of a rat liver microsomal enzyme of rat, 20.0 μl of an assay buffer [0.5 M KH2PO4, 10 mM DTT, pH 7.4], 15.0 μl of 40 mg/me BSA (essentially fatty acid free), 2.0 μl of 20 mg/me cholesterol, and 41.0 μl of distilled water, and subjected to pre-reaction at 37° C. for 20 min. To this enzymatic solution was added 8.0 μl of [1-^14C]oleoyl-CoA (0.05 μCi, final conc. 10 μM), and enzyme reaction was carried out at 37° C. for 25 min and terminated with 1 ml of isopropanol-heptane (4:1 v/v). Following the addition of 0.6 ml of heptane and 0.4 ml of five fold-diluted assay buffer, centrifugation was performed to separate the organic solvent. 100 μl of the supernatant was mixed well with 3 ml of Lipoluma scintillation cocktail and radioactivity was measured using a liquid scintillation counter.
Activity of inhibiting ACAT was quantified as radioactivity detected in the product of the reaction between the radio-labeled substrate and the enzyme in the presence of the assay samples, and percentage activity inhibition was calculated according to Equation 1 as follows.
CPM (T): CPM detected upon co-existence of sample and enzyme
CPM (C1): CPM upon existence of enzyme alone in the absence of sample
CPM (C2): CPM detected upon existence of sample alone in the absence of enzyme
CPM (B): CPM detected in the absence of both enzyme and sample.

Row | Compound | inhibitory activity relative to obovatol [times]
1 | CC(C)CNC(=O)/C=C/C=C/CCCC/C=C/c1ccc2c(c1)OCO2 [Chemical Formula 2, pipercide] | 12

Same assay, conditions: read-out: IC50 against ACAT; rat liver microsomal enzyme

Row | Compound | IC50 [µM]
2 | CC(C)CNC(=O)/C=C/C=C/CC/C=C/c1ccc2c(c1)OCO2 [Chemical Formula 1, retrofractamide A] | 24.5
3 | CC(C)CNC(=O)/C=C/C=C/CCCC/C=C/c1ccc2c(c1)OCO2 [Chemical Formula 2, pipercide] | 3.7
4 | O=C(/C=C/CCCCCCc1ccc2c(c1)OCO2)N1CCCCC1 [Chemical Formula 3, piperrolein B] | 87.5
5 | CC(C)CNC(=O)/C=C/CCCCCC/C=C/c1ccc2c(c1)OCO2 [Chemical Formula 4, piperchabamide D] | 11.5
6 | CCCCC/C=C/C=C/C(=O)NCC(C)C [Chemical Formula 5, pellitorin] | 40.4
7 | obovatol [reference compound] | 44
